Results as given in ChEMBL document CHEMBL5724914, “Linking interpersonal differences in gut microbiota composition and drug biotransformation activity” (2024).

Assay: (§1) The drug is tested on WLS-082 corresponding to human gut metagenome with ENA study accession number: PRJEB37062 and ENA sample accession number: ERS12561751 for biotransformation under anaerobic condition. The drug concentrations were measured over 9 timepoints collected between 0 and 24 hours of incubation by liquid-chromatography-coupled mass spectrometry (LC–MS)
Conditions: 2 µM
Also: call rule not given here.

Bacterial Biotransformation	SMILES
Compound NOT metabolized	CN1CCN2c3ccccc3Cc3ccccc3C2C1 (stereo not given) [MIANSERIN]
Compound metabolized	CC#C[C@]1(O)CC[C@H]2[C@@H]3CCC4=CC(=O)CCC4=C3[C@@H](c3ccc(N(C)C)cc3)C[C@@]21C [MIFEPRISTONE]
Compound NOT metabolized	CC(C)(C)NCC(O)COc1cccc2c1CC(O)C(O)C2 (stereo not given) [NADOLOL]
Compound metabolized	CC(C)[C@H]1CC[C@H](C(=O)N[C@H](Cc2ccccc2)C(=O)O)CC1 [NATEGLINIDE]

Assay: as §1, with “WLS-039” for “WLS-082”, “ERS12561746” for “ERS12561751”
Conditions: 2 µM

Bacterial Biotransformation	SMILES
Compound metabolized	CN1CCN2c3ccccc3Cc3ccccc3C2C1 (stereo not given) [MIANSERIN]
Compound NOT metabolized	CC#C[C@]1(O)CC[C@H]2[C@@H]3CCC4=CC(=O)CCC4=C3[C@@H](c3ccc(N(C)C)cc3)C[C@@]21C [MIFEPRISTONE]
Compound NOT metabolized	CC(C)(C)NCC(O)COc1cccc2c1CC(O)C(O)C2 (stereo not given) [NADOLOL]
Compound NOT metabolized	CC(C)[C@H]1CC[C@H](C(=O)N[C@H](Cc2ccccc2)C(=O)O)CC1 [NATEGLINIDE]

Conditions: human gut metagenome, 24 h, 2 µM

Bacterial Biotransformation	SMILES
Compound NOT metabolized	CN1CCN2c3ccccc3Cc3ccccc3C2C1 (stereo not given) [MIANSERIN]
Compound metabolized	CC#C[C@]1(O)CC[C@H]2[C@@H]3CCC4=CC(=O)CCC4=C3[C@@H](c3ccc(N(C)C)cc3)C[C@@]21C [MIFEPRISTONE]
Compound NOT metabolized	CC(C)(C)NCC(O)COc1cccc2c1CC(O)C(O)C2 (stereo not given) [NADOLOL]
Compound metabolized	CC(C)[C@H]1CC[C@H](C(=O)N[C@H](Cc2ccccc2)C(=O)O)CC1 [NATEGLINIDE]

Assay: as §1, with “Z-014” for “WLS-082”, “rat” for “human”, “ERS12561814” for “ERS12561751”
Conditions: 2 µM

Bacterial Biotransformation	SMILES
Compound NOT metabolized	CN1CCN2c3ccccc3Cc3ccccc3C2C1 (stereo not given) [MIANSERIN]
Compound NOT metabolized	CC#C[C@]1(O)CC[C@H]2[C@@H]3CCC4=CC(=O)CCC4=C3[C@@H](c3ccc(N(C)C)cc3)C[C@@]21C [MIFEPRISTONE]
Compound NOT metabolized	CC(C)(C)NCC(O)COc1cccc2c1CC(O)C(O)C2 (stereo not given) [NADOLOL]
Compound NOT metabolized	CC(C)[C@H]1CC[C@H](C(=O)N[C@H](Cc2ccccc2)C(=O)O)CC1 [NATEGLINIDE]

Conditions: human gut metagenome, 24 h, 2 µM
Remark: another data set of the same source

Bacterial Biotransformation	SMILES
Compound metabolized	CN1CCN2c3ccccc3Cc3ccccc3C2C1 (stereo not given) [MIANSERIN]
Compound metabolized	CC#C[C@]1(O)CC[C@H]2[C@@H]3CCC4=CC(=O)CCC4=C3[C@@H](c3ccc(N(C)C)cc3)C[C@@]21C [MIFEPRISTONE]
Compound NOT metabolized	CC(C)(C)NCC(O)COc1cccc2c1CC(O)C(O)C2 (stereo not given) [NADOLOL]
Compound metabolized	CC(C)[C@H]1CC[C@H](C(=O)N[C@H](Cc2ccccc2)C(=O)O)CC1 [NATEGLINIDE]

Assay: as §1, with “WLS-027” for “WLS-082”, “ERS12561744” for “ERS12561751”
Conditions: 2 µM

Bacterial Biotransformation	SMILES
Compound NOT metabolized	CN1CCN2c3ccccc3Cc3ccccc3C2C1 (stereo not given) [MIANSERIN]
Compound metabolized	CC#C[C@]1(O)CC[C@H]2[C@@H]3CCC4=CC(=O)CCC4=C3[C@@H](c3ccc(N(C)C)cc3)C[C@@]21C [MIFEPRISTONE]
Compound NOT metabolized	CC(C)(C)NCC(O)COc1cccc2c1CC(O)C(O)C2 (stereo not given) [NADOLOL]
Compound metabolized	CC(C)[C@H]1CC[C@H](C(=O)N[C@H](Cc2ccccc2)C(=O)O)CC1 [NATEGLINIDE]

Assay: as §1, with “WLS-090” for “WLS-082”, “ERS12561753” for “ERS12561751”
Conditions: 2 µM

Bacterial Biotransformation	SMILES
Compound metabolized	CN1CCN2c3ccccc3Cc3ccccc3C2C1 (stereo not given) [MIANSERIN]
Compound metabolized	CC#C[C@]1(O)CC[C@H]2[C@@H]3CCC4=CC(=O)CCC4=C3[C@@H](c3ccc(N(C)C)cc3)C[C@@]21C [MIFEPRISTONE]
Compound metabolized	CC(C)(C)NCC(O)COc1cccc2c1CC(O)C(O)C2 (stereo not given) [NADOLOL]
Compound metabolized	CC(C)[C@H]1CC[C@H](C(=O)N[C@H](Cc2ccccc2)C(=O)O)CC1 [NATEGLINIDE]

Assay: as §1, with “Z-017” for “WLS-082”, “mouse” for “human”, “ERS12561816” for “ERS12561751”
Conditions: 2 µM

Bacterial Biotransformation	SMILES
Compound NOT metabolized	CN1CCN2c3ccccc3Cc3ccccc3C2C1 (stereo not given) [MIANSERIN]
Compound NOT metabolized	CC#C[C@]1(O)CC[C@H]2[C@@H]3CCC4=CC(=O)CCC4=C3[C@@H](c3ccc(N(C)C)cc3)C[C@@]21C [MIFEPRISTONE]
Compound NOT metabolized	CC(C)(C)NCC(O)COc1cccc2c1CC(O)C(O)C2 (stereo not given) [NADOLOL]
Compound NOT metabolized	CC(C)[C@H]1CC[C@H](C(=O)N[C@H](Cc2ccccc2)C(=O)O)CC1 [NATEGLINIDE]

Conditions: human gut metagenome, 24 h, 2 µM
Remark: another data set of the same source

Bacterial Biotransformation	SMILES
Compound NOT metabolized	CN1CCN2c3ccccc3Cc3ccccc3C2C1 (stereo not given) [MIANSERIN]
Compound NOT metabolized	CC#C[C@]1(O)CC[C@H]2[C@@H]3CCC4=CC(=O)CCC4=C3[C@@H](c3ccc(N(C)C)cc3)C[C@@]21C [MIFEPRISTONE]
Compound metabolized	CC(C)(C)NCC(O)COc1cccc2c1CC(O)C(O)C2 (stereo not given) [NADOLOL]
Compound metabolized	CC(C)[C@H]1CC[C@H](C(=O)N[C@H](Cc2ccccc2)C(=O)O)CC1 [NATEGLINIDE]

Conditions: human gut metagenome, 24 h, 2 µM
Remark: another data set of the same source

Bacterial Biotransformation	SMILES
Compound metabolized	CN1CCN2c3ccccc3Cc3ccccc3C2C1 (stereo not given) [MIANSERIN]
Compound NOT metabolized	CC#C[C@]1(O)CC[C@H]2[C@@H]3CCC4=CC(=O)CCC4=C3[C@@H](c3ccc(N(C)C)cc3)C[C@@]21C [MIFEPRISTONE]
Compound NOT metabolized	CC(C)(C)NCC(O)COc1cccc2c1CC(O)C(O)C2 (stereo not given) [NADOLOL]
Compound metabolized	CC(C)[C@H]1CC[C@H](C(=O)N[C@H](Cc2ccccc2)C(=O)O)CC1 [NATEGLINIDE]

Assay: as §1, with “Z-019” for “WLS-082”, “rat” for “human”, “ERS12561818” for “ERS12561751”
Conditions: 2 µM

Bacterial Biotransformation	SMILES
Compound NOT metabolized	CN1CCN2c3ccccc3Cc3ccccc3C2C1 (stereo not given) [MIANSERIN]
Compound NOT metabolized	CC#C[C@]1(O)CC[C@H]2[C@@H]3CCC4=CC(=O)CCC4=C3[C@@H](c3ccc(N(C)C)cc3)C[C@@]21C [MIFEPRISTONE]
Compound NOT metabolized	CC(C)(C)NCC(O)COc1cccc2c1CC(O)C(O)C2 (stereo not given) [NADOLOL]
Compound NOT metabolized	CC(C)[C@H]1CC[C@H](C(=O)N[C@H](Cc2ccccc2)C(=O)O)CC1 [NATEGLINIDE]

Assay: as §1, with “Z-018” for “WLS-082”, “pig” for “human”, “ERS12561817” for “ERS12561751”
Conditions: 2 µM

Bacterial Biotransformation	SMILES
Compound metabolized	CN1CCN2c3ccccc3Cc3ccccc3C2C1 (stereo not given) [MIANSERIN]
Compound metabolized	CC#C[C@]1(O)CC[C@H]2[C@@H]3CCC4=CC(=O)CCC4=C3[C@@H](c3ccc(N(C)C)cc3)C[C@@]21C [MIFEPRISTONE]
Compound NOT metabolized	CC(C)(C)NCC(O)COc1cccc2c1CC(O)C(O)C2 (stereo not given) [NADOLOL]
Compound metabolized	CC(C)[C@H]1CC[C@H](C(=O)N[C@H](Cc2ccccc2)C(=O)O)CC1 [NATEGLINIDE]

Assay: as §1, with “Z-010” for “WLS-082”, “to” for “to human gut”, “ERS12561810” for “ERS12561751”
Conditions: 2 µM

Bacterial Biotransformation	SMILES
Compound metabolized	CN1CCN2c3ccccc3Cc3ccccc3C2C1 (stereo not given) [MIANSERIN]
Compound metabolized	CC#C[C@]1(O)CC[C@H]2[C@@H]3CCC4=CC(=O)CCC4=C3[C@@H](c3ccc(N(C)C)cc3)C[C@@]21C [MIFEPRISTONE]
Compound metabolized	CC(C)(C)NCC(O)COc1cccc2c1CC(O)C(O)C2 (stereo not given) [NADOLOL]
Compound metabolized	CC(C)[C@H]1CC[C@H](C(=O)N[C@H](Cc2ccccc2)C(=O)O)CC1 [NATEGLINIDE]

Assay: as §1, with “Z-021” for “WLS-082”, “to” for “to human gut”, “ERS12561820” for “ERS12561751”
Conditions: 2 µM

Bacterial Biotransformation	SMILES
Compound metabolized	CN1CCN2c3ccccc3Cc3ccccc3C2C1 (stereo not given) [MIANSERIN]
Compound NOT metabolized	CC#C[C@]1(O)CC[C@H]2[C@@H]3CCC4=CC(=O)CCC4=C3[C@@H](c3ccc(N(C)C)cc3)C[C@@]21C [MIFEPRISTONE]
Compound NOT metabolized	CC(C)(C)NCC(O)COc1cccc2c1CC(O)C(O)C2 (stereo not given) [NADOLOL]
Compound metabolized	CC(C)[C@H]1CC[C@H](C(=O)N[C@H](Cc2ccccc2)C(=O)O)CC1 [NATEGLINIDE]

Assay: as §1, with “Z-001” for “WLS-082”, “mouse” for “human”, “ERS12561801” for “ERS12561751”
Conditions: 2 µM

Bacterial Biotransformation	SMILES
Compound NOT metabolized	CN1CCN2c3ccccc3Cc3ccccc3C2C1 (stereo not given) [MIANSERIN]
Compound NOT metabolized	CC#C[C@]1(O)CC[C@H]2[C@@H]3CCC4=CC(=O)CCC4=C3[C@@H](c3ccc(N(C)C)cc3)C[C@@]21C [MIFEPRISTONE]
Compound metabolized	CC(C)(C)NCC(O)COc1cccc2c1CC(O)C(O)C2 (stereo not given) [NADOLOL]
Compound NOT metabolized	CC(C)[C@H]1CC[C@H](C(=O)N[C@H](Cc2ccccc2)C(=O)O)CC1 [NATEGLINIDE]

Conditions: human gut metagenome, 24 h, 2 µM
Remark: another data set of the same source

Bacterial Biotransformation	SMILES
Compound metabolized	CN1CCN2c3ccccc3Cc3ccccc3C2C1 (stereo not given) [MIANSERIN]
Compound metabolized	CC#C[C@]1(O)CC[C@H]2[C@@H]3CCC4=CC(=O)CCC4=C3[C@@H](c3ccc(N(C)C)cc3)C[C@@]21C [MIFEPRISTONE]
Compound metabolized	CC(C)(C)NCC(O)COc1cccc2c1CC(O)C(O)C2 (stereo not given) [NADOLOL]
Compound metabolized	CC(C)[C@H]1CC[C@H](C(=O)N[C@H](Cc2ccccc2)C(=O)O)CC1 [NATEGLINIDE]

Assay: as §1, with “WLS-086” for “WLS-082”, “ERS12561752” for “ERS12561751”
Conditions: 2 µM

Bacterial Biotransformation	SMILES
Compound metabolized	CN1CCN2c3ccccc3Cc3ccccc3C2C1 (stereo not given) [MIANSERIN]
Compound metabolized	CC#C[C@]1(O)CC[C@H]2[C@@H]3CCC4=CC(=O)CCC4=C3[C@@H](c3ccc(N(C)C)cc3)C[C@@]21C [MIFEPRISTONE]
Compound metabolized	CC(C)(C)NCC(O)COc1cccc2c1CC(O)C(O)C2 (stereo not given) [NADOLOL]
Compound metabolized	CC(C)[C@H]1CC[C@H](C(=O)N[C@H](Cc2ccccc2)C(=O)O)CC1 [NATEGLINIDE]

Assay: as §1, with “WLS-170” for “WLS-082”, “ERS12561762” for “ERS12561751”
Conditions: 2 µM

Bacterial Biotransformation	SMILES
Compound metabolized	CN1CCN2c3ccccc3Cc3ccccc3C2C1 (stereo not given) [MIANSERIN]
Compound metabolized	CC#C[C@]1(O)CC[C@H]2[C@@H]3CCC4=CC(=O)CCC4=C3[C@@H](c3ccc(N(C)C)cc3)C[C@@]21C [MIFEPRISTONE]
Compound metabolized	CC(C)(C)NCC(O)COc1cccc2c1CC(O)C(O)C2 (stereo not given) [NADOLOL]
Compound metabolized	CC(C)[C@H]1CC[C@H](C(=O)N[C@H](Cc2ccccc2)C(=O)O)CC1 [NATEGLINIDE]

Conditions: human gut metagenome, 24 h, 2 µM
Remark: another data set of the same source

Bacterial Biotransformation	SMILES
Compound metabolized	CN1CCN2c3ccccc3Cc3ccccc3C2C1 (stereo not given) [MIANSERIN]
Compound NOT metabolized	CC#C[C@]1(O)CC[C@H]2[C@@H]3CCC4=CC(=O)CCC4=C3[C@@H](c3ccc(N(C)C)cc3)C[C@@]21C [MIFEPRISTONE]
Compound NOT metabolized	CC(C)(C)NCC(O)COc1cccc2c1CC(O)C(O)C2 (stereo not given) [NADOLOL]
Compound metabolized	CC(C)[C@H]1CC[C@H](C(=O)N[C@H](Cc2ccccc2)C(=O)O)CC1 [NATEGLINIDE]

Assay: as §1, with “Z-005” for “WLS-082”, “to” for “to human gut”, “ERS12561805” for “ERS12561751”
Conditions: 2 µM

Bacterial Biotransformation	SMILES
Compound NOT metabolized	CN1CCN2c3ccccc3Cc3ccccc3C2C1 (stereo not given) [MIANSERIN]
Compound metabolized	CC#C[C@]1(O)CC[C@H]2[C@@H]3CCC4=CC(=O)CCC4=C3[C@@H](c3ccc(N(C)C)cc3)C[C@@]21C [MIFEPRISTONE]
Compound NOT metabolized	CC(C)(C)NCC(O)COc1cccc2c1CC(O)C(O)C2 (stereo not given) [NADOLOL]
Compound NOT metabolized	CC(C)[C@H]1CC[C@H](C(=O)N[C@H](Cc2ccccc2)C(=O)O)CC1 [NATEGLINIDE]
